Measurements published in patent US6218102A, “Synthetic peptides and mixtures thereof for detecting HIV antibodies” (priority 1988, dated 2001).
Peptide text beside a SMILES is read from it.

Columns and labels:
[1] = tested on: Antibodies to HIV-1; experiment: ELISA with peptide or peptide mixture as antigen, identifying HIV-1 positive sera; type: binding, human; details: single peptide, known HIV-1 positive sera, Table 3
Experimental: According to this test a peptide or a peptide mixture of the present invention is adsorbed onto the wells of a microtiter plate. The wells are then treated with sera to be tested. After washing, anti-human IgG labeled with peroxidase is added to the wells. The determination of the peroxidase is performed with a corresponding substrate, e.g. with o-phenylene diamine. Also in this procedure the peroxidase can be exchanged by another label, e.g. by a radioactive or fluorescence label.
(§1) Each well of the microtiter plate is saturated with 100 μl of a solution containing a peptide or mixture of peptides (5 μg/ml) and left overnight. The wells are emptied and washed twice with a washing buffer (Tris, 0.043M; NaCl, 0.5M; thimerosal, 0.01% w/v; Tween 20, 0.05% v/v; pH7.4). The wells are then saturated with 0.35 ml of washing buffer for 1 hr. at 37° C. and washed once with the same buffer. Serum samples to be analyzed are diluted with specimen buffer (washing buffer plus casein, 0.05% w/v). The wells are rinsed with washing buffer prior to the addition of the diluted serum sample (0.1 ml). These are left to incubate for 1 hr. at room temperature. The wells are then emptied, washed twice rapidly and then once for two minutes with washing buffer. […] The wells are then emptied and washed twice rapidly with washing buffer and then five times in which the buffer was in contact with the well 2 minutes per washing. The substrate solution (3,3', 5,5'-tetramethylbenzidine, 8 mg per ml of DMSO) is diluted with 100 volumes 0.1M citrate-acetate buffer, pH 5.6 containing 0.1% v/v of 30% H2 O2 and added to each well (0.1 ml per well). After 10 minutes the contents of each well is treated with 0.1 ml 2N H2 SO4 and the optical density read at 450 nm. All determinations are done in duplicate.

[2] = tested on: Antibodies to HIV-1; experiment: ELISA, relative performance of cyclic and non-cyclic HIV-1 peptides at serum dilutions (optical density); type: binding, human
Experimental: Table 4 is provided to illustrate the sensitivity of cyclic versus non cyclic peptides in the ELISA test by comparing the results of some sera at various dilutions.
as §1

[3] = serum specimen 87V103, dilution 1/50
[4] = serum specimen 1428, dilution 1/50
[5] = serum specimen M-5, dilution 1/50
[6] = serum specimen M-5, dilution 1/100
[7] = serum specimen M-5, dilution 1/200
[8] = serum specimen M-5, dilution 1/400
[9] = serum specimen M-5, dilution 1/800
[10] = serum specimen M-7, dilution 1/50
[11] = serum specimen M-7, dilution 1/100
[12] = serum specimen M-7, dilution 1/200
[13] = serum specimen M-7, dilution 1/400
[14] = serum specimen M-7, dilution 1/800
[15] = serum specimen M-8, dilution 1/50
[16] = serum specimen M-8, dilution 1/100
[17] = serum specimen M-8, dilution 1/200
[18] = serum specimen M-8, dilution 1/400
[19] = serum specimen M-8, dilution 1/800
[20] = serum specimen M-16, dilution 1/50
[21] = serum specimen M-16, dilution 1/100
[22] = serum specimen M-16, dilution 1/200
[23] = serum specimen M-16, dilution 1/400
[24] = serum specimen M-16, dilution 1/800

Row | Compound | % Positive Sera Correctly Identified [1] [%] | ELISA optical density [2, 3] [OPTICAL DENSITY UNITS] | ELISA optical density [2, 4] [OPTICAL DENSITY UNITS] | ELISA optical density [2, 5] [OPTICAL DENSITY UNITS] | ELISA optical density [2, 6] [OPTICAL DENSITY UNITS] | ELISA optical density [2, 7] [OPTICAL DENSITY UNITS] | ELISA optical density [2, 9] [OPTICAL DENSITY UNITS] | ELISA optical density [2, 10] [OPTICAL DENSITY UNITS] | ELISA optical density [2, 11] [OPTICAL DENSITY UNITS] | ELISA optical density [2, 12] [OPTICAL DENSITY UNITS] | ELISA optical density [2, 13] [OPTICAL DENSITY UNITS] | ELISA optical density [2, 14] [OPTICAL DENSITY UNITS] | ELISA optical density [2, 15] [OPTICAL DENSITY UNITS] | ELISA optical density [2, 16] [OPTICAL DENSITY UNITS] | ELISA optical density [2, 17] [OPTICAL DENSITY UNITS] | ELISA optical density [2, 18] [OPTICAL DENSITY UNITS] | ELISA optical density [2, 19] [OPTICAL DENSITY UNITS] | ELISA optical density [2, 20] [OPTICAL DENSITY UNITS] | ELISA optical density [2, 21] [OPTICAL DENSITY UNITS] | ELISA optical density [2, 22] [OPTICAL DENSITY UNITS] | other results
1 | NH2 -GCSGKLICTTAVPWNAS-COOH (H-GCSGKLICTTAVPWNAS-OH; cysteine pairing not given here) [Peptide 77, gp 41 604-620] | 100 | 0.000 | 0.926 | 1.719 | 1.459 | 1.248 | 0.057 | 0.142 | 0.025 | 0.007 | 0.001 | 0.000 | 0.795 | 0.507 | 0.376 | 0.209 | 0.062 | 1.219 | 0.962 | 0.613 | ELISA optical density [2, 8]: 0.959 OPTICAL DENSITY UNITS; ELISA optical density [2, 23]: 0.301 OPTICAL DENSITY UNITS; ELISA optical density [2, 24]: 0.205 OPTICAL DENSITY UNITS
2 | CC[C@H](C)[C@H](NC(=O)CNC(=O)[C@H](CC(C)C)NC(=O)[C@H](CC(C)C)NC(=O)[C@H](CCC(N)=O)NC(=O)[C@H](CCC(N)=O)NC(=O)[C@H](CC(=O)O)NC(=O)[C@H](CCCCN)NC(=O)[C@H](CC(C)C)NC(=O)[C@H](Cc1ccc(O)cc1)NC(=O)[C@H](CCCNC(=N)N)NC(=O)[C@H](CCC(=O)O)NC(=O)[C@@H](NC(=O)[C@H](C)NC(=O)[C@H](CC(C)C)NC(=O)[C@@H](NC(=O)[C@@H](N)CCCNC(=N)N)[C@@H](C)CC)C(C)C)C(=O)N[C@@H](Cc1c[nH]c2ccccc12)C(=O)NCC(=O)N[C@H]1CSSC[C@@H](C(=O)N[C@H](C(=O)N[C@H](C(=O)N[C@@H](C)C(=O)N[C@H](C(=O)N2CCC[C@H]2C(=O)N[C@@H](Cc2c[nH]c3ccccc23)C(=O)N[C@@H](CC(N)=O)C(=O)N[C@@H](C)C(=O)N[C@@H](CO)C(=O)O)C(C)C)[C@@H](C)O)[C@@H](C)O)NC(=O)[C@H]([C@@H](C)CC)NC(=O)[C@H](CC(C)C)NC(=O)[C@H](CCCCN)NC(=O)CNC(=O)[C@H](CO)NC1=O [Peptide 87c] (HELM PEPTIDE1{R.I.L.A.V.E.R.Y.L.K.D.Q.Q.L.L.G.I.W.G.C.S.G.K.L.I.C.T.T.A.V.P.W.N.A.S}$PEPTIDE1,PEPTIDE1,20:R3-26:R3$$$V2.0) | 99 | 0.011 | > 2.0 | > 2.0 | > 2.0 | > 2.0 | 1.854 | > 2.0 | > 2.0 | 1.729 | 1.348 | 0.611 | > 2.0 | > 2.0 | 1.655 | 1.064 | 0.384 | > 2.0 | > 2.0 | > 2.0 | ELISA optical density [2, 8]: > 2.0 OPTICAL DENSITY UNITS; ELISA optical density [2, 23]: > 2.0 OPTICAL DENSITY UNITS; ELISA optical density [2, 24]: 1.962 OPTICAL DENSITY UNITS
3 | NH2 -RILAVERYLKDQQLLGIWGCSGKLICTTAVPWNAS-COOH [Peptide 87] | 99 | 0.005 | 1.463 | 1.809 | 1.219 | 1.513 | 1.012 | 1.504 | 1.329 | 1.184 | 0.923 | 0.571 | 1.390 | 1.087 | 0.883 | 0.593 | 0.240 | 1.846 | 1.784 | 1.740 | ELISA optical density [2, 8]: 1.418 OPTICAL DENSITY UNITS; ELISA optical density [2, 23]: 1.634 OPTICAL DENSITY UNITS; ELISA optical density [2, 24]: 1.537 OPTICAL DENSITY UNITS
4 | CC[C@H](C)[C@@H]1NC(=O)[C@H](CC(C)C)NC(=O)[C@H](CCCCN)NC(=O)CNC(=O)[C@H](CO)NC(=O)[C@@H](NC(=O)CN)CSSC[C@@H](C(=O)N[C@H](C(=O)N[C@H](C(=O)N[C@@H](C)C(=O)N[C@H](C(=O)N2CCC[C@H]2C(=O)N[C@@H](Cc2c[nH]c3ccccc23)C(=O)N[C@@H](CC(N)=O)C(=O)N[C@@H](C)C(=O)N[C@@H](CO)C(=O)O)C(C)C)[C@@H](C)O)[C@@H](C)O)NC1=O [Peptide 80] (HELM PEPTIDE1{G.C.S.G.K.L.I.C.T.T.A.V.P.W.N.A.S}$PEPTIDE1,PEPTIDE1,2:R3-8:R3$$$V2.0) | 100 | 0.003 | 1.047 | 2.104 | 1.881 | 1.599 | 0.767 | 0.191 | 0.067 | 0.019 | 0.010 | 0.005 | 1.026 | 0.737 | 0.520 | 0.340 | 0.159 | 1.601 | 1.300 | 0.903 | ELISA optical density [2, 23]: 0.583 OPTICAL DENSITY UNITS; ELISA optical density [2, 24]: 0.329 OPTICAL DENSITY UNITS
